Source: PMC2150313 (British Journal of Cancer, 1998)
Where two headings read alike, the source gives them in different places.

How the values were obtained:
[1] = Rat pharmacokinetics: plasma 4-OH-IF and chloroacetaldehyde after i.v. IF, with P450 inducer/inhibitor pretreatment
Source text: British Joumal of Cancer (1998) 77(11), 1768-1776 ? […] Both reactions are catalysed by multiple liver P450 enzymes in vitro in isolated rat liver microsomes. […] The identification of those P450s that contribute specifically to these individual meta- bolic pathways is of particular interest, given the large degree of interindividual differences in the catalytic activities of specific P450s seen in human liver samples (Shimada et al, 1994). […] This complexation, in turn, results in an inhibition of these P450s. Inhibition of P450 2B 1 by non-covalent interaction with the haem ligand metyrapone (MTP) has also been reported (Waxman and Walsh, 1983; Halpert, 1995). […] MTP and other specialty chemi- cals were of the highest grade commercially available and were obtained from Aldrich Chemical (Milwaukee, WI, USA). Animals Male Fischer 344 rats (160-250 g; 7-11 weeks of age) were purchased from Taconic (Germantown, NY, USA). Animals were maintained in individual plastic cages under conditions of constant temperature (22?C), lighting (12-h dark-light cycle) and humidity, and provided with food and water ad libitum, in accordance with the National Institutes of Health Guide for the Care and Use of Laboratory Animals. Rat pharmacokinetics Surgery For kinetic studies, rats were implanted with an indwelling cannula (silicone medical grade/polyethylene tubing) in the right jugular vein to allow blood sampling and drug administration. Surgery was performed under ketamine (Ketaset 95 mg kg-') and xylazine (Rompun 12 mg kg-') anaesthesia 3-4 days before the kinetic experiment. After cannulation, a Rodent Infusion Set obtained from Lomin (Quebec, Canada) was used to withdraw blood samples at appropriate time intervals. Catheters were flushed daily with heparinized saline (20 U ml-') to prevent clotting. […] The sample was then diluted in 0.9% saline to the final required volume and the pH adjusted to pH 4 with 1 M sodium hydroxide. […] At each time point, the rats were given an injection of 0.5 ml of 0.9% saline through the catheter to replace the volume of blood withdrawn. […] Data shown at each pharmacokinetic sampling point are means ? s.d. values. […] Plasma samples (100 gl of supematant) were removed and stored at -80?C until analysis. Plasma proteins were precipitated by successive addition of 40 gl of ice-cold 5.5% (w/v) zinc sulphate, 40 gl of ice-cold saturated barium hydroxide and 20 gl of ice-cold 0.01 M hydrochloric acid. Samples were centrifuged for 15 min at 16 000 g, and 125 gl of the supernatant was added to 67 gl of a solution containing 6 mg of 3-amino- phenol and 6 mg of hydroxylamine hydrochloride dissolved in 1 ml of 1 M hydrochloric acid. Samples were heated at 90?C for 30 min in the dark, then allowed to cool to room temperature and diluted with 408 pl of distilled water before reading the fluores- cence (350 nm excitation and 515 nm emission) on a Shimadzu RF15 spectrofluorophotometer. […] CA present in the plasma samples was derivatized with thiourea to produce 2-aminothiazole, which was assayed by high-performance liquid chromatography (HPLC) after solid- phase extraction by a modification of published methods (Yu and Waxman, 1996). Briefly, a 208-gl aliquot of heparinized blood was immediately mixed with 1 mm formaldehyde to stabilize CA, and then deproteinized with 25.2 pl of ice-cold 70% perchloric acid. After centrifugation (16 000 g for 4 min) at room temperature, 140 pl of the supernatant was added to 21 pl of 100 mM thiourea. […] The derivatized samples were stored at -80?C until analysis (usually within 2 weeks). The 2-aminothia- zole product was isolated using a 100-mg Bond Elut SCX cation- exchange column (Varian), and then eluted, evaporated in vacuo in a Speed Vac and analysed by HPLC on an Alltech Econosphere C18 column with an absorbance detector operating at a wavelength of 254 nm.

[2] = test system: rat liver microsomes; parameters: method as in Yu and Waxman, 1996; settings: ref Yu and Waxman, 1996, cited from earlier work
[3] = target: T1, P450 2B1 (Rattus norvegicus, UniProt P00176); settings: isolated liver microsomes, vs untreated
T1 sequence (P00176 1-491): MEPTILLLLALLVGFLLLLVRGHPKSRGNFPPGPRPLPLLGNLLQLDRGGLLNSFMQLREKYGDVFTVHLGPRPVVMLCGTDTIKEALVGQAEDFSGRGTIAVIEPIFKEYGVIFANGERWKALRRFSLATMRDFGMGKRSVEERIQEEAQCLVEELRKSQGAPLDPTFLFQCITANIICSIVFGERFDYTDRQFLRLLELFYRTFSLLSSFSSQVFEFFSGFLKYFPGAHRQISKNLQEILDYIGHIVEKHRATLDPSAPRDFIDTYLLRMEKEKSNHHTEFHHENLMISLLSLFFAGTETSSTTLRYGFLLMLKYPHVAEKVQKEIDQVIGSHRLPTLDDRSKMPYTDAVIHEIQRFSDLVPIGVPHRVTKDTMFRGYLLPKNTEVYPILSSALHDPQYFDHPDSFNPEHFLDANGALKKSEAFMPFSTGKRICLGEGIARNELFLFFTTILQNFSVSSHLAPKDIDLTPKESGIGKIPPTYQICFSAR

[4] = after IF 100 mg kg-1 i.v., DEX 50 mg kg-1 for 3 days
[5] = after IF 100 mg kg-1 i.v., PB20 rats given MTP 5 min before IF

Work on `O=CCCl` [CA, chloroacetaldehyde] yielded a tmax [1, 4] of 10 min, a tmax [1, 5] of 60 min and a tmax ([1]; after IF 100 mg kg-1 i.v., PB-pretreated rats (PB20 and PB80, Figure 1B and C)) of 4 min. It also gave a Cmax ([1]; plasma, IF 100 mg kg-1 i.v., PB80+TAO group (TAO 500 mg kg-1 2 h before IF), n=3) of 172 µM.

For `O=P1(NCCCl)OCCCN1CCCl` (stereo not drawn) [IF, ifosfamide], the “extent of in vitro IF N-dechloroethylation, of total metabolism” value ([2]; liver microsomes of DEX-treated male rats) is given as 24% and the “extent of in vitro IF N-dechloroethylation, of total metabolism” value ([2]; liver microsomes of male rats without DEX treatment) is given as 47%.

For `CCC1(c2ccccc2)C(=O)NC(=O)NC1=O` [PB, phenobarbital], the “induction of androstenedione 16β-hydroxylase activity” value ([3]; PB20 regimen) was “fivefold” and the “induction of androstenedione 16β-hydroxylase activity” value ([3]; PB80 regimen) was 7.5 fold.

For `O=P1(NCCCl)OCCC(O)N1CCCl` (stereo not drawn) [4-OH-IF, 4-hydroxy IF], the tmax [1, 4] was 4 min, the tmax [1, 5] was 4 min and the “tmax (time to reach peak plasma concentration)” value ([1]; after IF 100 mg kg-1 i.v., untreated (UT) rats) was 4 to 10 min.

With `Cc1ccccc1C(OCCN(C)C)c1ccccc1` (stereo not drawn) [ORP, orphenadrine, reference compound] the “increase in CA half-life” value ([1]; male, Fischer 344, rat, in vivo, ip) was “approximately 30%”.
